From patent US8349793B2, “Method for treatment of inflammatory disease and disorder” (Heal0r, Ltd., priority 2010, dated 2013)
Several values for one entry are separate records, joined by “and”; a condition that tells them apart may be missing. Equal values may be shown once. Where no end group is shown, it is not given here. The star is where a group is joined. Myristoyl = CCCCCCCCCCCCCC(=O)*

Columns and labels:
keratinocytes = assay: Cytokine secretion in keratinocytes stimulated by LPS, TNFα or IL-17 (ELISA); assay type: cell-based, BALB/C mice
Procedure: To determine their effects, keratinocytes were derived from newborn BALB/C mice skin. The cells were incubated for 5 days in 24 wells plate. Cells were then incubated with PBS−/− as control or stimulated by LPS, TNFα, or IL-17. PKCα inhibitors were added as indicated. Medium containing secreted cytokines was collected after 48 hr and analyzed using ELISA. FIG. 40 is a tabular summary of cytokine secretion.
PKCδactivators were also shown to have an anti-inflammatory effect on keratinocytes and splenocytes. Keratinocytes were derived from newborn BALB/C mice skin. The cells were incubated for 5 days in 24 wells plate. Cells were then incubated with PBS−/− as control or stimulated by LPS or TNFα. The PKCδ inhibitor DAP-1 (SEQ ID NO: 16) was added. Medium containing secreted cytokines was collected after 48 hr and analyzed using ELISA. FIG. 35 is a tabular summary showing cytokine secretion in splenocytes stimulated with LPS. […] Cytokine secretion in keratinocytes stimulated by TNFα: following stimulation with 35 ng/ml TNFα. And treatment with 10 μg/ml of DAP-1, the cytokine levels of IL-1α, G-CSF, MIP-2 and KC were reduced by 95%, 70%, 20% and 30# respectively.
PKCε inhibitors were also shown to have an anti-inflammatory effect on keratinocytes. Keratinocytes were derived from newborn BALB/C mice skin. The cells were incubated for 5 days in 24 wells plate. Cells were then incubated with PBS−/− as control or stimulated by LPS or TNFα. The PKCεinhibitors EPIP-1 (SEQ ID NO: 20), EPIP-2 (SEQ ID NO: 21), or EPIP-4 (SEQ ID NO: 23) were added. Medium containing secreted cytokines was collected after 48 hr and analyzed using ELISA. FIGS. 36-39 show the results for secretion of specific cytokines while Table 8 summarizes cytokine secretion for the various PKCε inhibitors: […]

IKK = assay: TNFα induced IKK activation in keratinocytes (Western Blot, phospho-IKKa/b); assay type: cell-based, Murine; conditions: TNFα 35 ng/ml for 15 minutes
Procedure: Murine primary keratinocytes were grown for 4 days to full confluence in Low Ca^+2 MEM. Cells were pretreated with designated concentration of MPDY-1 as described in the figure for 1 hour, prior to TNFα induction. Following MPDY-1 pretreatment, cells were incubated with TNFα 35 ng/ml for 15 minutes. Reaction was stopped by adding ice-cold dPBS−/− and keratinocytes were homogenized in RIPA buffer. Samples were subjected to SDS PAGE Western Blot analysis, utilizing phospho-IKKa/b (Ser176/180 antibody).

healthy volunteers = assay: Histamine prick test model of pruritus; assay type: in vivo, human (healthy volunteers); conditions: for Pruritus score after minutes of histamine, 5 minutes / Pruritus score after minutes of histamine, 15 minutes: topical on forearm
Procedure: Forearms of individual subjects were injected with histamine solution and placebo. The formulation of Example 4 was topically applied with MPDY-1 at various concentrations and pruritus was assessed over a time course as shown, for example in FIG. 34.
This test was performed by placing a drop of a solution containing a possible allergen on the skin, and a series of scratches or needle pricks allow the solution to enter the skin. The extract enters into the outer layer of the skin (epidermis) using a fine needle (such as a. 26G disposable needle). This testing is not painful, and generally there is no bleeding involved since the needle only scratches the surface of the skin. If the skin develops a red, raised itchy area (called a wheal), it is as a result of allergic reaction to that allergen. This is called a positive reaction. A drop of extract is introduced through a fine needle (such as a No. 26 disposable needle). The test causes no discomfort and minimal trauma so that controls and negative test show only the site of the prick; if anything.
26G needles were utilized to introduce histamine stock (Histatrol Positive Control Histamine, 1 mg/ml, code #HIST14999V, Trupharm). The test was conducted on healthy volunteers in a double-blind, randomized test. The formulations were applied on the forearms. Three treatment areas were chosen and marked (the surface of the forearm from the elbow to the wrist was divided transversely into proximal, middle and distal thirds); the areas were pricked prior the below treatments.
An area was treated with the active formulation in a double-blind manner, for 10 minutes—marked as A.
An area was treated with the Placebo in a double-blind manner, for 10 minutes—marked as C.
A color photograph was taken at time zero (T0), after 10, 20, 30 minutes.
Pruritus questionnaire was answered by the subjects 5 and 15 minutes after treatment.
In one study, three subjects were treated, in the left or right arm, with MDPY-1 in gel or cream formulations, or with control formulations, as shown in Table 9.
Subjects were provided with pruritus sensation forms and asked to indicate the level of pruritus sensed from 0 (no response) to 4 (uncontrollable pruritus) at different time intervals.

C57BL/6J mouse = assay: Wound model of skin inflammation, immunohistochemical staining (ICAM-1, Iba-1, MAC-2, CD3, neutrophils); assay type: in vivo; conditions: treated daily
Text: A methodology was developed to detect and quantitatively assess inflammation in skin lesions in a wound setting which allows one to follow cutaneous inflammatory response in the different skin compartments and identify agents that affect this response (as a preliminary screening). Inflammatory response was considered severe when two of the following three conditions were evident: (1) abscess formation; (2) excessive leukocytosis (>100 cells in a fixed field×200); (3) high WB C/RBC ratio in blood vessels, where >20% of WBC content within the blood vessels is shown in a fixed field×200. Mechanistic characterization of the immunological response is studied utilizing markers to identify infiltration and activation of specific immunological cells. Examples for such markers are: ICAM-1 (as a marker activated basal keratinocytes and endothelial cells), MAC-2 (as a marker for activated macrophages) and CD3 (T cell marker).
(§1) A two-cm longitudinal incision was done on the upper back of a C57BL/6J mouse. Following wounding, a sterile pad was sutured to the mouse's skin. Animals were treated daily with HO/02/10 (n=12). Five days post-wounding, when inflammatory phase reaches its peak, the mice were sacrificed, skin tissues were embedded in paraffin and immunohistochemical staining was performed utilizing anti-ICAM-1 antibodies.
as §1, with “As above, a two-cm” for “A two-cm”, “with MPDY-1 (n=6).” for “with HO/02/10 (n=12).”
The effect of MPDY-1 on macrophage infiltration was also shown by Iba-1 staining. Iba-1 is a general marker for macrophages. […] As above, a two-cm longitudinal incision was done on the upper back of a C57BL/6J mouse. Following wounding, a sterile pad was sutured to the mouse's skin. Animals were treated daily with MPDY-1 (n=6). […]

[1] = 10 ppm in gel, score 0 (no response) to 4 (uncontrollable pruritus)

Substance: Myristoyl-Phe-Ala-Arg-Lys-Gly-Ala-Leu-Arg-Gln (Myristoyl-FARKGALRQ) [MPDY-1]
- cytokine secretion from LPS and TNFα activated keratinocytes (keratinocytes; FIGS. 19 to 23): decrease
- cytokine secretion from IL-17A activated keratinocytes (keratinocytes; FIGS. 24 to 27): decrease
- cytokine secretion in keratinocytes (keratinocytes; stimulated by LPS, TNFα, or IL-17, 48 hr): effective in decreasing cytokine secretion
- MPDY-1 concentration exhibiting the strongest inhibition of IKK activation (IKK; lowest concentration tested): 0.1 mg/mL
- TNFα induced IKK activation in keratinocytes (IKK; pretreated 1 hour, dose dependant): significantly reduced
- Pruritus score after minutes of histamine, 5 minutes (healthy volunteers; 1 μg/ml in DPBS, score 0 to 4): 3
- Pruritus score after minutes of histamine, 15 minutes (healthy volunteers; 1 μg/ml in DPBS, score 0 to 4): 1
- Pruritus score after minutes of histamine, 5 minutes (healthy volunteers; 10 μg/ml in DPBS, score 0 to 4): 2 and 1
- Pruritus score after minutes of histamine, 15 minutes (healthy volunteers; 10 μg/ml in DPBS, score 0 to 4): 0
- Pruritus score after minutes of histamine, 5 minutes (healthy volunteers; 10 ppm in cream, score 0 to 4): 1
- Pruritus score after minutes of histamine, 15 minutes (healthy volunteers; 10 ppm in cream, score 0 to 4): 0
- Pruritus score after minutes of histamine, 5 minutes (healthy volunteers; [1]): 2
- Pruritus score after minutes of histamine, 15 minutes (healthy volunteers; [1]): 0
- redness, inflammation and pruritus as compared with control (healthy volunteers; histamine prick test, over the time course): significantly attenuated
- Activation of macrophages (MAC-2 staining) (C57BL/6J mouse; 5 days, 1, 10 and 100 micrograms per mL): significantly inhibited
- ICAM expression on basal keratinocytes and endothelial cells in blood vessels of the skin (ICAM-1 staining) (C57BL/6J mouse; five days post-wounding): down regulation
- macrophage infiltration (Iba-1 staining) (C57BL/6J mouse; five days post-wounding): dose dependent effect
